Consider 1 compound from patent publication US20040024024A1, “Aromatic sulfone hydroxamates and their use as protease inhibitors” (priority 2001, published 2004).

What all share (experiment): In vitro MMP inhibition, Ki determination (fluorogenic substrate II)
Common to all, as to type: biochemical
Conditions in all cases: value in parentheses

The target of one assay is T1, Human recombinant MMP-14 (Homo sapiens, UniProt P50281).
T1 construct: The catalytic domain enzyme was expressed in E. coli inclusion bodies, solubilized in urea; made in house
Summed up: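 Refolded E. coli-expressed MMP-14 catalytic domain, APMA- or trypsin-activated, incubated 1 h at room temperature with 4 μM fluorogenic substrate II in pH 7.5 Tris/NaCl/CaCl2 buffer; fluorescence read at 330/420 nm. Ki from Morrison-equation non-linear regression, substrate at or below Km, uncorrected for substrate.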

Another assay addresses T2, Human recombinant MMP-1 (Homo sapiens, UniProt P03956).
T2 construct: made in house; host or cells: MMP-1-transfected HT-1080 cells (spent media)
T2 sequence (P03956 100-469): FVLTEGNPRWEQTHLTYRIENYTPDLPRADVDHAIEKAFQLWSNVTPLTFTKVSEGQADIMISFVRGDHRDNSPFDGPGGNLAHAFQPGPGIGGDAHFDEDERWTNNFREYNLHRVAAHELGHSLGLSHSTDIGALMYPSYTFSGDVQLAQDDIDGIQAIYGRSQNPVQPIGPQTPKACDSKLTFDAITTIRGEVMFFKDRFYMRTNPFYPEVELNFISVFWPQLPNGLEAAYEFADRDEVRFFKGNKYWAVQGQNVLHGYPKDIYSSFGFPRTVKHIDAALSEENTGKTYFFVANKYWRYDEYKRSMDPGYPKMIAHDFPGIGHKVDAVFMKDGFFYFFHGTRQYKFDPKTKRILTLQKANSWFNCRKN
Summed up:
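Activated human recombinant MMP-1 (APMA- or trypsin-activated; proenzyme from transfected HT-1080 cells) incubated 1 hr at room temperature with 4 μM MCA/Dpa fluorogenic substrate II at or below Km in Tris buffer pH 7.5 with CaCl2. Fluorescence ex 330/em 420 nm; Ki from Morrison-equation non-linear regression, uncorrected for substrate.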

A further assay addresses T3, Human recombinant MMP-9 (Homo sapiens, UniProt P14780).
T3 construct: made in house; host or cells: MMP-9-transfected HT1080 cells (spent media)
Summed up:
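MMP-9 proenzyme purified from transfected HT1080 cell media, activated with APMA, trypsin or recombinant MMP-3; hydroxamates diluted in pH 7.5 Tris/NaCl/CaCl2 buffer. Cleavage of 4 μM MCA/Dpa substrate II followed by fluorescence (ex 330/em 420 nm), 1 h at room temperature. Ki from Morrison-equation fit, substrate at/below Km, uncorrected.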

T3 sequence (P14780 107-707 limits assumed): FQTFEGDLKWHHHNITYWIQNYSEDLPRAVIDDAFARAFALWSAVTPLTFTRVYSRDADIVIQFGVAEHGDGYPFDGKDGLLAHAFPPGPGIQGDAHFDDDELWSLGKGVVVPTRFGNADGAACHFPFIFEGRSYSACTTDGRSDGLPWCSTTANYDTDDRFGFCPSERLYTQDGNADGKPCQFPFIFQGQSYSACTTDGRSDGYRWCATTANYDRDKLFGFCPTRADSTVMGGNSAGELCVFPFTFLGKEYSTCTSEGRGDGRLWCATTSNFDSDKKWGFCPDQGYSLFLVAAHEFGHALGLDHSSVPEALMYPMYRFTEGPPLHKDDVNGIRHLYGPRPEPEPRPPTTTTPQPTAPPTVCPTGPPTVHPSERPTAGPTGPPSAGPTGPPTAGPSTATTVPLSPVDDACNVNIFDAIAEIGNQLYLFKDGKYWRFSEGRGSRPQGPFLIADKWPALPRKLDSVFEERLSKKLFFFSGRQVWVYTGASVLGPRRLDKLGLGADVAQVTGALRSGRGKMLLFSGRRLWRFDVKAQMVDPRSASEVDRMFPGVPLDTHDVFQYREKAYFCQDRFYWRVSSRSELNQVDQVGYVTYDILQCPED

With `C#Cc1ccc(-c2cccc(CCCOc3ccc(S(=O)(=O)C4(C(=O)NO)CCN(CCOC)CC4)cc3)c2)cc1` [Example 646], the Ki (in general, a measure of affinity in units of concentration, obtained from inhibition or displacement) at Human recombinant MMP-14 was 4.3 µM; at Human recombinant MMP-1, greater than 10 µM; at Human recombinant MMP-9, 0.0762 µM.
